Tests used:
Assay in all cases: biochemical
[1] = target: T1, SIK1 (Homo sapiens, UniProt P57059); details: 33P radioactive SIK kinase assay, AMARA peptide, 10 μM ATP; read-out: SIK1 IC50
T1 construct: purchased Carna Biosciences 02-131
Procedure: (§1) The principle of the ^33P radioactive kinase assay consists in measuring the incorporated ^33P into the substrate AMARA peptide when phosphorylated by SIK1, SIK2 or SIK3 using [^33P]-g-ATP, which correlates with kinase activity.
(§2) 1% DMSO and 10 μM staurosporine final concentrations are used as negative and positive controls.
(§3) 11 μL of enzyme-substrate mixture is added on the assay plates. The reactions are started by adding 9 μL ATP mixture, consisting of non-labeled and ^33P-labeled ATP, on the assay plates.
(§4) The reactions are stopped by adding 25 μL phosphoric acid (150 mM) to the reactions.
(§5) After harvesting the kinase reactions, the filter plates are washed 6 times with phosphoric acid (75 mM). […] The top of the plates are sealed with TopSeal-A. Read-out is performed with a TopCount instrument (PerkinElmer Inc.).

[2] = target: T2, SIK2 (Homo sapiens, UniProt Q9H0K1); details: 33P radioactive SIK kinase assay, AMARA peptide, 10 μM ATP
T2 construct: purchased ThermoFisher Scientific PV4792
Procedure: as §1, §2, §3, §4, §5

[3] = target: T3, SIK3 (Homo sapiens, UniProt Q9Y2K2)
T3 construct: purchased SignalChem S12-11G-100
Procedure: as §1, §2, §3, §4, §5

T2 sequence (Q9H0K1 whole entry): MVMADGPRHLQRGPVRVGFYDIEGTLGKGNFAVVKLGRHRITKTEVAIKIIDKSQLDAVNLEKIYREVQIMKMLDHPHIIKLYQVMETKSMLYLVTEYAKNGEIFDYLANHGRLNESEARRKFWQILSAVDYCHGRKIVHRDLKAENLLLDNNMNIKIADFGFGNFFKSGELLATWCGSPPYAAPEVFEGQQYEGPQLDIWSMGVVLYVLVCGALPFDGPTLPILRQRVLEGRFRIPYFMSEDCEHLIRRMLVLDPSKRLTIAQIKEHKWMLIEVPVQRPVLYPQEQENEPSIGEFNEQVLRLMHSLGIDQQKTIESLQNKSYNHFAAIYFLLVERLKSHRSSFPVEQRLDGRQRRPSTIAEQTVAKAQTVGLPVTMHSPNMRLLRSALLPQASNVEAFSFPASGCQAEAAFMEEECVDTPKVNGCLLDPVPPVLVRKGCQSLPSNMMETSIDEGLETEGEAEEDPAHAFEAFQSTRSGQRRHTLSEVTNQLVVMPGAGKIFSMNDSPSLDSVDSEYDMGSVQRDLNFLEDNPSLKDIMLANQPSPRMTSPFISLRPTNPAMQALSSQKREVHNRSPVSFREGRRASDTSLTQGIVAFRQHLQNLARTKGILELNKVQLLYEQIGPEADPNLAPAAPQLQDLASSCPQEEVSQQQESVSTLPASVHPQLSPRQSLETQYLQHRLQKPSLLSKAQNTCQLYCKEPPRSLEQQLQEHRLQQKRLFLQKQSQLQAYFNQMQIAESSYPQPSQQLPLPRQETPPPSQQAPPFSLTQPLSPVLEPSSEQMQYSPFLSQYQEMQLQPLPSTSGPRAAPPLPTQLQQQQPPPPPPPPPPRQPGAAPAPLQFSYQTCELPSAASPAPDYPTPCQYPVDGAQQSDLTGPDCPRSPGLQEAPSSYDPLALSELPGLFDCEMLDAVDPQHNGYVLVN
T1 sequence (P57059 whole entry): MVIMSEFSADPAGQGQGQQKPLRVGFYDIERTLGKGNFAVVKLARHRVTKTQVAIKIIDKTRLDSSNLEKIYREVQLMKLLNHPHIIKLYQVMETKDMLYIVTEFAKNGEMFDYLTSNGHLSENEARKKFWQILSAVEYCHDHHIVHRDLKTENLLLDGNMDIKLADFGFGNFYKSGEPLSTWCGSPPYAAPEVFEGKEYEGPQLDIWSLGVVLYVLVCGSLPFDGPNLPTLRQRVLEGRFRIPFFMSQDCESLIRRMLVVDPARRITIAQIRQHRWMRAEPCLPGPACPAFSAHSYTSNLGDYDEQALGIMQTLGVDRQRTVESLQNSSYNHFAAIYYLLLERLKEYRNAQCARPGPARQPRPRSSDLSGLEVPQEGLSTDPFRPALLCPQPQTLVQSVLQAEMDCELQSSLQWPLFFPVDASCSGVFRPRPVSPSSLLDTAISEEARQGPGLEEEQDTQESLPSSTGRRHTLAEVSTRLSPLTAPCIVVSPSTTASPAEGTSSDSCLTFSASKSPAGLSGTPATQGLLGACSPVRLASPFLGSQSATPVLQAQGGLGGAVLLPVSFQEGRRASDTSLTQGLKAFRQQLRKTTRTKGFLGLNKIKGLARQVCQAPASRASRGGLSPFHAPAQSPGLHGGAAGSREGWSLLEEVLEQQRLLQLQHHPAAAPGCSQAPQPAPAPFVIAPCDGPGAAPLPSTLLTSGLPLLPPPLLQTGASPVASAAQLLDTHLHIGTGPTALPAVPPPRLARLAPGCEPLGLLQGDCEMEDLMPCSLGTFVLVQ
T3 sequence (Q9Y2K2 whole entry): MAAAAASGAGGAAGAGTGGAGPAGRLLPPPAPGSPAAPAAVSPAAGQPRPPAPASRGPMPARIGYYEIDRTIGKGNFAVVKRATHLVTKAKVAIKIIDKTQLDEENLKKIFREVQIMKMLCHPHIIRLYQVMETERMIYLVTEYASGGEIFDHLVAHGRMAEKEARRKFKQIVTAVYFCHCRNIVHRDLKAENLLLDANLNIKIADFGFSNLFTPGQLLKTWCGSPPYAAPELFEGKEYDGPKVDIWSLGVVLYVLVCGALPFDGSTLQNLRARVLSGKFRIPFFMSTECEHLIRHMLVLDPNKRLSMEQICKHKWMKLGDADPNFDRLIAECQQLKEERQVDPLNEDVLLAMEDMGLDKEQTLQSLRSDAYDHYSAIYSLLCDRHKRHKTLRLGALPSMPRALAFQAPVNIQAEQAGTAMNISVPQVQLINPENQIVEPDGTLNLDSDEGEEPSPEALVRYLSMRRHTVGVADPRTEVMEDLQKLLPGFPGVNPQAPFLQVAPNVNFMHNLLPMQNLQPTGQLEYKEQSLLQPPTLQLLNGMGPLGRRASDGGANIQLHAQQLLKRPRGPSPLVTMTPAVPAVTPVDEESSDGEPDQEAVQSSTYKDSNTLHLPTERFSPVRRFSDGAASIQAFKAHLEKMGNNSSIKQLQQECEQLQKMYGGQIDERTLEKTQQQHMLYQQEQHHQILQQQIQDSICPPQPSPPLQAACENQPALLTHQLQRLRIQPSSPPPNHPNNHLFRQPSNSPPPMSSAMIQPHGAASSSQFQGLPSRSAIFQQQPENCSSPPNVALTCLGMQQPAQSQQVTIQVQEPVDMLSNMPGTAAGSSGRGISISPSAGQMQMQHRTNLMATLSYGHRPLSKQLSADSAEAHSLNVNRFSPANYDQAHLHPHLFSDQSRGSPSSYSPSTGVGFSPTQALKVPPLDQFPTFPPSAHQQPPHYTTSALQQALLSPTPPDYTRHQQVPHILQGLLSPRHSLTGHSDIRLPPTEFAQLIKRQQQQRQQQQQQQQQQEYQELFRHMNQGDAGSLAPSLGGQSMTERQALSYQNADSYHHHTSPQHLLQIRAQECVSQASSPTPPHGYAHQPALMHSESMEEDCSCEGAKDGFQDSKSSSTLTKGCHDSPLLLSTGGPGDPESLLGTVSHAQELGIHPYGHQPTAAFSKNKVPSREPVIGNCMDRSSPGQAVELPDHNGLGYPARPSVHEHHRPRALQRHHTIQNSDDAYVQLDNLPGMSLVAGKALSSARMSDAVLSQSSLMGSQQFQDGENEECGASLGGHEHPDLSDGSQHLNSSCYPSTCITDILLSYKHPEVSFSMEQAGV

Row | Compound | IC50 [1] [nM] | IC50 [2] [nM] | IC50 [3] [nM]
1 | COc1cc(-n2cnc3cc(-c4cnn(C)c4)ccc32)cc(OC)c1C(=O)NC1CCCC1(F)F (stereo not drawn) [compound 90, N-(2,2-difluorocyclopentyl)-2,6-dimethoxy-4-[5-(1-methylpyrazol-4-yl)benzimidazol-1-yl]benzamide] | 10 to 100 | 10 to 100 | 10 to 100
2 | COc1cc(-n2cnc3cc(-c4cnn(C)c4)ccc32)cc(OC)c1C(=O)NC(C)C(F)F (stereo not drawn) [compound 91, N-(2,2-difluoro-1-methyl-ethyl)-2,6-dimethoxy-4-[5-(1-methylpyrazol-4-yl)benzimidazol-1-yl]benzamide] | 10 to 100 | 10 to 100 | 10 to 100
3 | COc1cc(-n2cnc3cc(-c4cnn(C)c4)ccc32)cc(OC)c1C(=O)NC1COC1 [compound 92, 2,6-dimethoxy-4-[5-(1-methylpyrazol-4-yl)benzimidazol-1-yl]-N-(oxetan-3-yl)benzamide] | 10 to 100 | 10 to 100 | 10 to 100
4 | COc1cc(-n2cnc3cc(-c4ccnnc4)ccc32)cc(OC)c1C(=O)NCC(F)(F)F [compound 93, 2,6-dimethoxy-4-(5-pyridazin-4-ylbenzimidazol-1-yl)-N-(2,2,2-trifluoroethyl)benzamide] | 100 to 500 | 10 to 100 | 10 to 100
5 | COc1cc(-n2cnc3cc(-c4cncnc4)ccc32)cc(OC)c1C(=O)NCC(F)(F)F [compound 104, 2,6-dimethoxy-4-(5-pyrimidin-5-ylbenzimidazol-1-yl)-N-(2,2,2-trifluoroethyl)benzamide] | > 500 | 100 to 500 | 100 to 500
6 | COc1ncc(-c2ccc3c(c2)ncn3-c2cc(OC)c(C(=O)NCC(F)(F)F)c(OC)c2)cn1 [compound 105, 2,6-dimethoxy-4-[5-(2-methoxypyrimidin-5-yl)benzimidazol-1-yl]-N-(2,2,2-trifluoroethyl)benzamide] | > 500 | > 500 | 100 to 500
7 | COc1cc(-c2ccc3c(c2)ncn3-c2cc(OC)c(C(=O)NCC(F)(F)F)c(OC)c2)ccn1 [compound 106, 2,6-dimethoxy-4-[5-(2-methoxy-4-pyridyl)benzimidazol-1-yl]-N-(2,2,2-trifluoroethyl)benzamide] | 100 to 500 | 10 to 100 | 10 to 100
8 | COc1cc(-n2cnc3cc(-c4conc4C)ccc32)cc(OC)c1C(=O)NCC(F)(F)F [compound 108, 2,6-dimethoxy-4-[5-(3-methylisoxazol-4-yl)benzimidazol-1-yl]-N-(2,2,2-trifluoroethyl)benzamide] | 100 to 500 | 100 to 500 | 100 to 500
9 | COc1cc(-n2cnc3cc(-c4cnn(CC5CCCO5)c4)ccc32)cc(OC)c1C(=O)NCC(F)(F)F (stereo not drawn) [compound 111, 2,6-dimethoxy-4-[5-[1-(tetrahydrofuran-2-ylmethyl)pyrazol-4-yl]benzimidazol-1-yl]-N-(2,2,2-trifluoroethyl)benzamide] | 0.01 to 10 | 0.01 to 10 | 0.01 to 10
10 | COc1cc(-n2cnc3cc(-c4cnn(C)c4)ccc32)cc(OC)c1C(=O)NCC(C)C [compound 113, N-isobutyl-2,6-dimethoxy-4-[5-(1-methylpyrazol-4-yl)benzimidazol-1-yl]benzamide] | 10 to 100 | 10 to 100 | 10 to 100
11 | CCC(C)NC(=O)c1c(OC)cc(-n2cnc3cc(-c4cnn(C)c4)ccc32)cc1OC (stereo not drawn) [compound 114, 2,6-dimethoxy-4-[5-(1-methylpyrazol-4-yl)benzimidazol-1-yl]-N-sec-butyl-benzamide] | 100 to 500 | 100 to 500 | 100 to 500
12 | COc1cc(-n2cnc3cc(-c4cnn(C)c4)ccc32)cc(OC)c1C(=O)NC(C)C [compound 115, N-isopropyl-2,6-dimethoxy-4-[5-(1-methylpyrazol-4-yl)benzimidazol-1-yl]benzamide] | 10 to 100 | 10 to 100 | 10 to 100
13 | COc1cc(-n2cnc3cc(-c4cnnc(C)c4)ccc32)cc(OC)c1C(=O)NCC(F)(F)F [compound 121, 2,6-dimethoxy-4-[5-(6-methylpyridazin-4-yl)benzimidazol-1-yl]-N-(2,2,2-trifluoroethyl)benzamide] | > 500 | 100 to 500 | 10 to 100
14 | COc1cc(-n2cnc3cc(-c4cnccn4)ccc32)cc(OC)c1C(=O)NCC(F)(F)F [compound 128, 2,6-dimethoxy-4-(5-pyrazin-2-ylbenzimidazol-1-yl)-N-(2,2,2-trifluoroethyl)benzamide] | > 500 | > 500 | 100 to 500
15 | COc1cc(-c2cnc3cc(-c4cnn(C)c4)ccn23)cc(OC)c1C(=O)NC1CS(=O)(=O)C1 [compound 130, N-(1,1-dioxothietan-3-yl)-2.6-dimethoxy-4-[7-(l-methylpyrazol-4-yl)imidazo[1,2-a]pyridin-3-yl]benzamide] | 10 to 100 | 0.01 to 10 | 10 to 100
16 | COCCN(C)C(=O)c1c(OC)cc(-c2cnc3cc(-c4cnn(C)c4)ccn23)cc1OC [compound 131, 2,6-dimethoxy-N-(2-methoxyethyl)-N-methyl-4-[7-(1-methylpyrazol-4-yl)imidazo[1,2-a]pyridin-3-yl]benzamide] | > 500 | 100 to 500 | 100 to 500
17 | COc1cc(-n2cnc3cc(-c4nccn4C)ccc32)cc(OC)c1C(=O)NCC(F)(F)F [compound 134, 2,6-dimethoxy-4-[5-(1-methylimidazol-2-yl)benzimidazol-1-yl]-N-(2,2,2-trifluoroethyl)benzamide] | > 500 | 10 to 100 | 100 to 500

Results, then the compound that gave them:

Row | IC50 [1] [nM] | IC50 [2] [nM] | IC50 [3] [nM] | Compound
18 | > 500 | 100 to 500 | 100 to 500 | COc1cc(-n2cnc3cc(-c4cncn4C)ccc32)cc(OC)c1C(=O)NCC(F)(F)F [compound 135, 2,6-dimethoxy-4-[5-(3-methylimidazol-4-yl)benzimidazol-1-yl]-N-(2,2,2-trifluoroethyl)benzamide]
19 | > 500 | > 500 | > 500 | CCNC(=O)c1c(OC)cc(-n2cnc3cc(-c4noc(C)n4)ccc32)cc1OC(F)F [compound 136, 2-(difluoromethoxy)-N-ethyl-6-methoxy-4-[5-(5-methyl-l,2,4-oxadiazol-3-yl)benzimidazol-1-yl]benzamide]
20 | > 500 | 100 to 500 | 100 to 500 | COc1cc(-n2cnc3cc(-c4cnc(C)n4C)ccc32)cc(OC)c1C(=O)NCC(F)(F)F [compound 138, 4-[5-(2,3-dimethylimidazol-4-yl)benzimidazol-1-yl]-2,6-dimethoxy-N-(2,2,2-trifluoroethyl)benzamide]
21 | 100 to 500 | 10 to 100 | 10 to 100 | COc1cc(-n2cnc3cc(-c4cnn(C)c4)ccc32)cc(OC)c1C(=O)N[C@@H]1CCC[C@H]1O [compound 143, N-[(1R,2R)-2-hydroxycyclopentyl]-2,6-dimethoxy-4-[5-(1-methylpyrazol-4-yl)benzimidazol-1-yl]benzamide]
22 | > 500 | > 500 | > 500 | CCNC(=O)c1c(OC)cc(-n2cnc3cc(-c4nnc(C)[nH]4)ccc32)cc1OC(F)F [compound 150, 2-(difluoromethoxy)-N-ethyl-6-methoxy-4-[5-(5-methyl-4H-1,2,4-triazol-3-yl)benzimidazol-1-yl]benzamide]
23 | 10 to 100 | 10 to 100 | 10 to 100 | COc1cc(-n2cnc3cc(-c4c[nH]cn4)ccc32)cc(OC)c1C(=O)NCC(F)(F)F [compound 153, 4-[5-(1H-imidazol-4-yl)benzimidazol-1-yl]-2,6-dimethoxy-N-(2,2,2-trifluoroethyl)benzamide]
24 | > 500 | > 500 | > 500 | COc1cc(-n2cnc3cc(-c4cnn(C)c4)ccc32)cc(OC)c1C(=O)NC1CCCCC1OC (stereo not drawn) [compound 161, 2,6-dimethoxy-N-(2-methoxycyclohexyl)-4-[5-(1-methylpyrazol-4-yl)benzimidazol-1-yl]benzamide]
25 | 100 to 500 | 100 to 500 | 10 to 100 | COc1cc(-n2cnc3cc(-c4cnn(C)c4)ccc32)cc(OC)c1C(=O)N1CCC1 [compound 162, azetidin-1-yl-[2,6-dimethoxy-4-[5-(1-methylpyrazol-4-yl)benzimidazol-1-yl]phenyl]methanone]
26 | 100 to 500 | 100 to 500 | > 500 | COc1cc(-n2cnc3cc(-c4cnn(C)c4)ccc32)cc(OC)c1C(=O)N[C@H]1CCCC[C@@H]1O [compound 164]
27 | 10 to 100 | 0.01 to 10 | 0.01 to 10 | COc1cc(-c2cnc3cc(-c4cnn(C)c4)ccn23)cc(OC)c1C(=O)N[C@H]1CC[C@@H]1O [compound 170]
28 | 10 to 100 | 100 to 500 | 100 to 500 | COc1cc(-n2cnc3cc(-c4cnn(C)c4)ccc32)cc(OC)c1C(=O)N1CC(c2ccccc2)C1 [compound 180, [2,6-dimethoxy-4-[5-(1-methylpyrazol-4-yl)benzimidazol-1-yl]phenyl]-(3-phenylazrtidin-1-yl)methanone]
29 | > 500 | > 500 | > 500 | COc1cc(-n2cnc3cc(-c4cnn(C)c4)ccc32)cc(OC)c1C(=O)N1C(C)CC1C (stereo not drawn) [compound 181, [2,6-dimethoxy-4-[5-(1-methylpyrazol-4-yl)benzimidazol-1-yl]phenyl]-(2,4-dimethylazetidin-1-yl)methanone]
